Measured values published in publication PMC6272715, “Discovery of Novel Small Molecule Anti-HCV Agents via the CypA Inhibitory Mechanism Using O-Acylation-Directed Lead Optimization” (Molecules, 2015).
Values joined by “and” are separate entries in the source; they are usually repeats but may differ in a detail not shown here. Identical values can stand only once. Like-named read-outs stand apart in the source and are kept apart here.

Legend:
[1] = PBS pH 7.4, 37 °C
HCV Con1-1b replicon = assay: HCV Con1-1b subgenomic replicon assay; type: cell-based; conditions: Hepatitis C virus; Table 4; read-out: Anti-HCV Activity EC50 ± SD Replicon Assay Con1-1b
[2] = Cell proliferation (cytotoxicity) assay, WST-1; type: cell-based; conditions: human, Huh 7.5.1 cells
Method: Cell Proliferation Assay: Huh 7.5.1 cells were seeded at a density of 2 × 10^4 cells per well in 96-well plates overnight. The cells were respectively incubated with serial diluted compounds for 48 h, and the viability of Huh7.5.1 cells was determined in 96-well tissue culture plates using cell proliferation reagent WST-1 (Roche, Basel, Switzerland). The absorbance (OD450 /reference OD630) was measured to detect the cytotoxicity of compounds, according to the manufacturer’s protocol of Cell Proliferation Reagent WST-1.

[3] = system: JFH1-2a virus (wild type); assay: HCV virus assay, JFH1-2a wild type, Huh 7.5.1 cells; conditions: Hepatitis C virus
[4] = rats, intravenous injection of 25 (2 mg∙kg^−1)
HCV JFH1-2a replicon = assay: HCV JFH1-2a subgenomic replicon assay (Renilla luciferase, Huh 7.5.1 replicon cells); type: cell-based; conditions: Hepatitis C virus, Table 4, read-out: Anti-HCV Activity EC50 ± SD Replicon Assay JFH1-2a
HCV H77-1a replicon = assay: HCV H77-1a subgenomic replicon assay; type: cell-based; conditions: Hepatitis C virus; Table 4; read-out: Anti-HCV Activity EC50 ± SD Replicon Assay H77-1a
hERG channels = biological target: T1, hERG channels (Homo sapiens, UniProt Q12809); assay: hERG cardiac toxicity assay (automated QPatch, CHO cells expressing hERG); type: cell-based; conditions: QPatch whole-cell recording
T1 construct: expressed in transfected cells; host or cells: CHO cells, stably transfected
T1 sequence (Q12809 whole entry): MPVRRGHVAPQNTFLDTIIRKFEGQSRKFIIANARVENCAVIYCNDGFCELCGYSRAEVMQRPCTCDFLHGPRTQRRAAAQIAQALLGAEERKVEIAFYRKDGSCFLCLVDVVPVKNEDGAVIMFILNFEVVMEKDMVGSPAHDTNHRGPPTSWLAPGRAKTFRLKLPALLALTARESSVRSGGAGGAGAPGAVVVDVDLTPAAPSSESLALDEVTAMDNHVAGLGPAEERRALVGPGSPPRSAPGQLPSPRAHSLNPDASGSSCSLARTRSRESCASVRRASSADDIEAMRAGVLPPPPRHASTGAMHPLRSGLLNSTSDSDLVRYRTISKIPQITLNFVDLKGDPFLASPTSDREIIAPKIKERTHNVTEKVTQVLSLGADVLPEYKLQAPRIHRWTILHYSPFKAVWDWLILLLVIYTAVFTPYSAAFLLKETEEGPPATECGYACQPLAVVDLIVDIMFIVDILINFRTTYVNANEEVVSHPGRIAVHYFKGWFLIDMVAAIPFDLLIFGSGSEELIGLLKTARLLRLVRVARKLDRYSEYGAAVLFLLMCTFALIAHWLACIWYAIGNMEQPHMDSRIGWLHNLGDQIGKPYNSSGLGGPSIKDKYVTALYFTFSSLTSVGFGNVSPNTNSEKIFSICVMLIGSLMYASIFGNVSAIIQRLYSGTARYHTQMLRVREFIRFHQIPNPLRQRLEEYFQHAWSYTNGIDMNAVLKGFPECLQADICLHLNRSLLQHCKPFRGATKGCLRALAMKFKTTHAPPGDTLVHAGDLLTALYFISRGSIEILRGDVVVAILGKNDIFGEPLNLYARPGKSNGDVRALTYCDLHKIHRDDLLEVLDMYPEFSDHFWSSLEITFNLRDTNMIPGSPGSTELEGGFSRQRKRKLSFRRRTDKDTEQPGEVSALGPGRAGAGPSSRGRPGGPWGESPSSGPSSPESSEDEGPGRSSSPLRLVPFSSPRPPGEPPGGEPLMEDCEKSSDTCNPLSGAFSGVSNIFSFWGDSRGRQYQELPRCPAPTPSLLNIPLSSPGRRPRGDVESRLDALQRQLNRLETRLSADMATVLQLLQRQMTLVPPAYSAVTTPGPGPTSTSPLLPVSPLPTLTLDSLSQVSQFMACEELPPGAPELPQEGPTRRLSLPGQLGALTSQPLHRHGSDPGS
Method: After intravenous administration, blood samples (0.2 mL) were collected at designated time points (0, 5, 15, 30, 45 min, 1, 2, 3, 5, 8, 12 and 24 h) from the eye venous sinus of the rats. The blood samples were centrifuged at 14800 rpm for 10 min to obtain the plasma fraction. The plasma samples were kept frozen (−20 °C) until analysis by a liquid chromatography-tandem mass spectrometry (LC-MS/MS).
Table S3. Pharmacokinetic parameters after intravenous administration of 25 to SD rats at […]
Pharmacokinetic Parameters 25 (Intravenous Injection of 2 mg 25/kg) Rat 1 Rat 2 a Rat 3 Mean ± SD […]
1 (intravenous injection of 2mg 25/kg) Rat 1 Rat 2 a Rat 3 Mean ± SD […]
a Rat 2: parts of the sample of 25 was injected into the subcutaneous tissues which lead to the uncertainty of the plasma concentration, so this rat was not incorporated into the calculation of pharmacokinetic parameters; b Cmax: maximum plasma concentration taken directly from measured values; c Tmax: time to reach Cmax; d AUC0-∞: integrated area under plasma concentration vs. time curve from time 0 to time infinity; e MRT: mean residence time; f t1/2: half-life. g N: parts of the data below the LLOQ, that result in the uncertainty of the pharmacokinetic parameters. hERG Cardiac Toxicity Assay of Compound 25 […]
After achieving break-in (whole-cell) configuration, the cells were recorded for 120 s to assess current stability. […]

JFH1-2a (S282T) virus = assay: HCV virus assay, mutant JFH1-2a (S282T) virus strain; type: cell-based; conditions: Hepatitis C virus, read-out: Anti-HCV Activity (Virus Assay) EC50 ± SD JFH1-2a (S282T)

CCCCCCCC(=O)Oc1cccc(O)c1C(=O)NC(=O)NC1c2ccccc2-c2ccccc21 [Compound 25, 1-(2-Hydroxy-6-n-Octanoyloxybenzoyl)-3-(9H-fluoren-9-yl)-urea]
25 Content ([1]; 0 h): 100% | 25 Content ([1]; 0.5 h): 99.79% | 25 Content ([1]; 1.0 h): 100.13% | 25 Content ([1]; 1.5 h): 99.76% | 25 Content ([1]; 2.0 h): 100.72% | 25 Content ([1]; 3.0 h): 100.67% | 25 Content ([1]; 3.5 h): 100.93% | 25 Content ([1]; 4.0 h): 100.74% | 25 Content ([1]; 5.0 h): 100.21% | 25 Content ([1]; 6.0 h): 100.24% | 25 Content ([1]; 7.0 h): 100.34% | 25 Content ([1]; 8.0 h): 100.30% | 25 Content ([1]; 9.0 h): 99.29% | 25 Content ([1]; 10.0 h): 98.88% | 25 Content ([1]; 11.0 h): 98.43% | 25 Content ([1]; 12.0 h): 98.65% and 98.6% | EC50 (HCV Con1-1b replicon): 810 ± 240 nM | CC50 at 48 h ([2]; Table 4, 48 h): > 16000 nM | CC50 at 48 h ([2]; Table 5): > 20000 nM | melting point: 184 to 189 °C | EC50 ([3]; Huh-7.5.1, read-out: Anti-HCV Activity (Virus Assay) EC50 ± SD JFH1-2a (Wild Type)): 270 ± 90 nM | EC50 ([3]; Huh-7.5.1, read-out: Anti-HCV Activity EC50 ± SD Virus Assay JFH1-2a): 190 ± 80 nM | plasma concentration after 5 min (mean ± SD) [4]: 20.47 ± 9.99 ng/mL | EC50 (HCV JFH1-2a replicon): 450 ± 80 nM | EC50 (HCV H77-1a replicon): 850 ± 210 nM | IC50 (hERG channels): > 15000 nM | EC50 (JFH1-2a (S282T) virus): 290 ± 70 nM
